Key:
fibroblast = conditions: cited from earlier work
human keratinocytes = conditions: cited from earlier work
skin = conditions: rat; cited from earlier work
[1] = Solubility of DHEA at ambient temperature in different solvents (HPLC of supernatant); type: physicochemical; conditions: ambient temperature (25° C.), after 24 hours
Method: The solubility of DHEA was evaluated at ambient temperature in different solvents. For this purpose the DHEA was dispersed in excess in the solvent in question, which had been brought to 60° C. beforehand. This temperature was maintained for one hour, with stirring using a magnetic bar. The suspension was subsequently returned to ambient temperature (25° C.). After 24 hours the suspension was centrifuged in order to remove the undissolved DHEA crystals. The supernatant was taken and checked for the absence of DHEA crystals by cross-polarized light microscopy. This supernatant was subsequently analysed by HPLC. The amount of DHEA detected is taken to correspond to its maximum solubility in the solvent in question.

| SMILES | fibroblast proliferation (fibroblast) | viability of human keratinocytes (human keratinocytes) | elastin content and collagen content of the skin (skin) | thickness of the dermis (skin) | DHEA solubility ([1]; solvent Dipropylene glycol) | DHEA solubility ([1]; solvent Glycerol) | DHEA solubility ([1]; solvent PEG-400) | DHEA solubility ([1]; solvent Propylene glycol) | DHEA solubility ([1]; solvent Sorbitol) |
| --- | --- | --- | --- | --- | --- | --- | --- | --- | --- |
| C[C@]12CC[C@H](O)CC1=C[C@@H](O)[C@@H]1[C@@H]2CC[C@]2(C)C(=O)CC[C@@H]12 [7α-hydroxy-DHEA] | increase | increase | increases | increases | – | – | – | – | – |
| C[C@]12CC[C@H](O)CC1=CC[C@@H]1[C@@H]2CC[C@]2(C)C(=O)CC[C@@H]12 [DHEA, dehydroepiandrosterone] | – | – | – | – | 10.48% by weight | 0.15% by weight | 3.67% by weight | 5.88% by weight | 0.05% by weight |
